Legend:
HEPG2 (ASGPR+) = experiment: Adherence of NK/LAK activity to HEPG2 monolayers at 23° C; type: cell-based, human
Experimental: (§1) This experiment is the same as above, except that the adherence to monolayers was performed at 23° C. and not 4° C., for 2 hours. Two monolayers were used: HEPG2, an ASGPR+ cell line, and CAKI-2 (human renal cell carcinoma), an ASGPR− cell line. The effector cell populations that were used were: an untreated 3-day old LAK preparation (LAK) and the same population treated with Vibrio cholera neuraminidase (LAK/NS) (30 mU/1×10^7 cells/200 μl). The neuraminidase-treated population was the asialopositive lymphocyte control. All cell populations regardless of treatment were greater than 90% viable at the time of assay. Each type of effector population was incubated with media alone, 200 μg/ml ASF or F, as controls. All effectors were assayed on RAJI (LAK-sensitive target; NK-insensitive target) or K562 (NK/LAK-sensitive target); the E:T ratios and the graphic presentation are the same above.
(§2) Five-day LAK preparations (20 U/ml; 1 Dupont unit=44.5 BRMP units) grown in AIM-V (Gibco) were treated (according to the protocols in B. 1.2.3 & 1.2.4) with 3 OmU Vibric Cholera neuramindase, 0.48 mU 2,3-or 10 mu 2,6-silalyltransferase per 107 cells. Some of the effectors were incubated in media, 10% PBS in RPMJ 1640 at 23° C. for 2 hours. 2×107 effectors from the untreated LALK, neuramithdase-treated LAK, LAK treated with 2,3 or 2,6 were suspended in 15 ml media and placed onto either HEPG2 (ASGPR+) or CAKI-2 (ASGPR−) monolayers at 23° C. for 2 hours. The flasks were rocked every 15 minutes. The nonadherent cells from these monolayers were decanted and assayed against K562 and RAJI, in addition to the unadhered controls. The E:T ratios used were 40, 20, 10, and 5 to 1.

CAKI-2 (ASGPR−) = experiment: Adherence of NK/LAK activity to CAKI-2 monolayers at 23° C; type: cell-based, human
Experimental: as §1, §2

[1] = tested on: RAJI (LAK-sensitive target; NK-insensitive target); experiment: Cytotoxic capacity of LAK effectors in 51Cr-release assay on RAJI; type: cell-based, human; conditions: for LAK activity (killing of RAJI) after enzyme treatment of effector cell surface: enzyme-treated LAK cells
Experimental: Control cells (no IL-2 treatment) or LAK cells (IL-2-treated human peripheral blood lymphocytes cultured 10U IL-2/ml for 3 days) were adhered to a monolayer of HEP G2 cells for 2 hours at 4° C. The monolayer was pretreated either with asialofetuin (ASF, 200 μg/ml) in media or with fetuin (F, control, 200 μg/ml)) in media. After the Control or LAK cells had been incubated on the monolayer, these cells were then decanted, washed, and tested for cytotoxic capacity in a ^51Cr-release assay against the NK-resistant target, Raji.
as §1, §2

[2] = tested on: K562 (NK/LAK-sensitive target); experiment: Cytotoxic capacity of IL-2 activated NK effectors in 51Cr-release assay on K562; type: cell-based, human
Experimental: as §1, §2

[3] = tested on: human CD34+ (hCD34+) peripheral blood stem cells; experiment: In vivo trafficking of 111In-labeled human CD34+ stem cells (HSC) after glycoprotein infusion, gamma camera imaging; design: species or system NOD-SCID mice; conditions: for organ localization of infused hematopoietic (CD34+) stem cells, in words: cells preceded by infusion of the protein, jugular vein, immunodeficient mice
Experimental: Intravenous cannulas were placed into the external jugular vein of NOD-SCID mice under anesthesia (Institutional Animal Care and Use Committee protocol #AM87046-07) to enable the efficient delivery of ^111In-labeled stem cells i.v. Tylenol elixir was administered by mouth after recovery from anesthesia. Briefly radiolabeled CD34+ cells were taken up in 100-250 ul of 5% human plasma albumin in saline and injected into the cannula and then flushed with 50 ul of the albumin-saline. The mice were imaged by nuclear medicine.
Mice: NOD-SCID, female mice (Nonobese diabetic/LtSz-scid/scid) were obtained from the Jackson Laboratory, Bar Harbor, Me. at 1-2 months of age. These animals were maintained in microisolator cages in a special isolator room. The air was HEPA filtered, and the animals were changed in a laminar flow hood within the facility. All food, bedding, and water was sterilized. […] See, e.g. Hogan, et al., Biology of Blood & Marrow Transplantation 3:236-246 (1997); Noort, et al., Bone Marrow Transplantation 22 Suppl 1:S58-60 (1998).
(§3) ^111Indium Oxine Labeling Procedure: ^111In-oxine labeling of adult human CD34+ or mesenchymal stem cells (hMSCs) was performed using a modification of the Amersham Healthcare Procedure for labeling autologous leukocytes.
(§4) Imaging procedures: Nuclear Medicine. NOD-SCID mice were anesthetized using rodent anesthesia cocktail. Once anesthetized, the mice were placed on a foam hemi-cylindrical mouse positioning device (MPD) and covered with a tube sock. The MPD allows better visual separation of the lungs and liver as compared to placing the mouse on a flat surface. The foam on which the mouse was placed, and the tube sock covering maintained a comfortable temperature permitting longer imaging without additional anesthesia. The MPD was placed on a narrow table between the dual heads of a Siemens E.Cam Gamma Camera and imaged statically or dynamically in 2-D or SPECT. ^57Co-Spot Marker is used to mark anatomic positions (nose, tail, cannula, etc.). The data was analyzed using a Siemens ICON system for regions of interest or percent of injected dose (e.g. liver, spleen, heart).
(§5) Gamma camera imaging using a Siemens E. Cam dual head gamma camera monitored the in vivo trafficking patterns of all human stem cells described in the following examples. Mice were placed on a Mouse Positioning Device (MPD) and placed between the detectors on the imaging platform.
5.75×10^6 111In-labeled human CD34+ (hCD34+) peripheral blood stem cells were administered intravenously (i.v.) via an external jugular vein cannula to 2 month old, NOD-SCID, female mice (Non-obese diabetic/LtSz-scid/scid) obtained from the Jackson Laboratory, Bar Harbor, Me. The radiolabeled CD34+ stem cells were administered after pretreatment of the mouse with 3.3 mg of asialoorosomucoid (ASO) i.v. The in vivo trafficking patterns were followed by gamma camera imaging using a Siemens E.Cam dual head gamma camera from immediately after injection up to 36 hr postinfusion. Human CD34+ were isolated from apheresis stem cell collection products derived from deceased cancer patients. They were purified to 95-99% purity using antibody conjugated to CD34 conjugated to magnetics beads (MACS) separation columns; Miltenyi Biotec, Auburn, Calif. and cryopreserved.
5.75×10^6 111In-labeled human CD34+ (hCD34+) peripheral blood stem cells were administered intravenously (i.v.) via an external jugular vein cannula to 2 month old, NOD-SCID, female mice (Non-obese diabetic/LtSz-scid/scid) obtained from the Jackson Laboratory, Bar Harbor, Me. The radiolabeled CD34+ stem cells were administered after pretreatment of the mouse with 5.5 mg of orosomucoid (O) i.v.
The preparation and procedures set forth in Example I were repeated. […]

[4] = tested on: human mesenchymal stem cells (MSC); experiment: In vivo trafficking of 111In-labeled human mesenchymal stem cells (MSC) after glycoprotein infusion, gamma camera imaging; design: species or system NOD-SCID mice; conditions: for % Infused Cells in Liver/Spleen: 0.56×10^6 MSC preceded by 4.3 mg ASO followed by 5.5 mg orosomucoid i.v.
Experimental: Human mesenchymal stem cells (hMSCs; PT-2501) obtained through a FDA monitored paid bone marrow donor program were purchased from Poietics Technologies, BioWhittaker (Walkerville, Md.). The cells were thawed according to manufacturer recommendations, resuspended, and radiolabeled in Mesenchymal Stem Cell Basal Medium (MSCBM).
as §3, §4, §5
MSC were obtained from BioWhittaker, (Poietics Division, cryopreserved PT-2501 >750,000 cells per ampoule) and labeled with ^111In as in previous examples, except that the MSC were labeled, washed, and injected in Basal Stem Cell Medium (Poietics) containing 5% human serum albumin (HSA). 0.56×10^6 111In labeled, human mesenchymal stem cells (MSC) were administered via an implanted Da Vinci Microport Vascular System cannula in the external jugular vein of a two-month old, female NOD-SCID mouse in 0.21 ml of basal stem cell medium containing 5% human serum albumin (HSA). Immediately prior to administration of MSC, 11.0 mg of orosomucoid was administered i.v. in 0.2 ml.
0.56×10^6 “In-labeled, MSC were administered i.v. in 0.21 ml of basal stem cell medium containing 5% human serum albumin (HSA). Prior to administration of MSC, 0.1 ml containing 4.3 mg of ASO, followed by 0.1 ml containing 5.5 mg orosomucoid were administered i.v. The ASO, orosomucoid and MSC were administered via an implanted Da Vinci Microport Vascular system cannula in the external jugular vein of a two-month old, female NOD-SCID mouse.

Caki-2 Targets = experiment: 51Cr-release assay of LAK effectors against CAKI-2 with agent added; type: cell-based, human; conditions: for % 51Chromium Release from Caki-2 Targets: agent 250 μg per well, 5-day LAK, 4-hour incubation
Description: A working hypothesis is that LAK/NK cells bind to HEPG2 via at least two receptors or recognition structures: 1) the ASGPR, which binds an asialodeterminant on the LAK/NK population and 2) the “LAK” or “NK” recognition structure for a target epitope. The first should be inhibitable by ASF; the second should not be. Binding to CAKI-2 (ASGPR−) should not be inhibited by ASF and is due to a LAK or NK recognition structure binding to the target epitope. This can be further supported by data derived from experiments (see below) in which 250 μg/well of ASF or F were added to the ^51Cr-release assay of LAK effectors against the labeled target CAKI-2.
(% SPECIFIC RELEASE was determined from quadruplicates whose raw counts per minute differed by less than 10 percent; the assay was a standard 4-hour incubation.)

## Neuraminidase: Vibrio cholera neuraminidase used to treat LAK cells and generate cell surface asialodeterminants
HEPG2 (ASGPR+); 23° C for 2 hours
  adherence of LAK activity to HEPG2 (assayed on RAJI) after cell surface modification: did not
CAKI-2 (ASGPR−); 5-day LAK, 23° C for 2 hours
  adherence to CAKI-2 of IL-2 activated NK activity (assayed on K562) after cell surface modification: promotes adherence
[1]
  LAK activity (killing of RAJI) after enzyme treatment of effector cell surface: enhances
[1]; listed as neuraminidase
  LAK activity (killing of RAJI) after enzyme treatment of effector cell surface: significantly enhanced
[2]; enzyme-treated LAK cells
  IL-2 activated NK (killing K562 targets) after enzyme treatment of effector cell surface: does not enhance

## asialoorosomucoid [ASO]
[3]; 5.75×10^6 HSC after 3.3 mg ASO i.v., early postinfusion images
  migration of CD34+ cells to the liver and spleen, in words: did not migrate to the liver and spleen early
[3]
  organ localization of infused hematopoietic (CD34+) stem cells, in words: migrated immediately to the heart
[3]; listed as asialoorosomucoid
  organ localization of infused hematopoietic (CD34+) stem cells, in words: predominantly localize in the heart
[4]; 0 hr
  % Infused Cells in Liver/Spleen: 63 ± 5% at 0 hr
[4]; 1 hr
  % Infused Cells in Liver/Spleen: 57 ± 7% at 1 hr
[4]; cells preceded by infusion of the protein, jugular vein, immunodeficient mice
  organ localization of infused mesenchymal stem cells, in words: localize in the liver

## fetuin [reference compound]
HEPG2 (ASGPR+); 23° C, 200 μg/ml
  inhibition of adherence to HEPG2 of LAK activity (assayed on RAJI): could not be inhibited
HEPG2 (ASGPR+); 23° C, 200 μg/ml, assayed on RAJI
  inhibition of adherence of LAK activity of the neuraminidase-treated population to HEPG2: not
HEPG2 (ASGPR+); 23° C, with or without neuraminidase treatment, 200 μg/ml
  inhibition of adherence to HEPG2 of IL-2 activated NK (assayed on K562): not
CAKI-2 (ASGPR−); 23° C, 200 μg/ml
  inhibition of adherence to CAKI-2 of IL-2 activated NK or LAK activity: could not be inhibited
Caki-2 Targets; E:T 5:1
  % 51Chromium Release from Caki-2 Targets: 16%
Caki-2 Targets; E:T 10:1
  % 51Chromium Release from Caki-2 Targets: 27%
Caki-2 Targets; E:T 20:1
  % 51Chromium Release from Caki-2 Targets: 42%
Caki-2 Targets; E:T 40:1
  % 51Chromium Release from Caki-2 Targets: 58%
Caki-2 Targets; preincubation of targets and addition to the assay at 250 μg per well
  blocking of LAK killing of the tumor target CAKI-2, in words: does not block
[1]; 200 μg/ml for 2 h at 40C, no monolayer
  activity of LAK or Control preparations incubated with the protein alone versus untreated LAK: identical activity
[1]; 200 μg/ml, 23° C
  ability of effectors (LAK or LAK/NS) to kill RAJI after preincubation with the protein: does not affect
[2]; 200 μg/ml, 23° C
  ability of effectors (LAK or LAK/NS) to kill K562 after preincubation with the protein: does not affect
